Experimental data taken from ChEMBL document CHEMBL6109144, “Discovery of New Difluorocyclobutyl Derivatives as Effective Glucagon-Like Peptide-1 Receptor Agonists with Reduced hERG Inhibitory Activities” (J Med Chem, 2025).
pEC50: −log10 of the molar value. Activity calls are given as the source filed them. The calls are words filed in the database; no cut-off is given here.

Key:
[1] = molecular target: T1, Glucagon-like peptide 1 receptor (Homo sapiens, UniProt P43220); assay: Agonist activity at N-terminal hemagglutinin-tagged human GLP-1R expressed in CHO cells co-transfected with pcDNA3.0 assessed as increase in intracellular cAMP accumulation incubated for 30 mins by microplate reader analysis; format: functional, cell-based
T1 sequence (P43220 whole entry): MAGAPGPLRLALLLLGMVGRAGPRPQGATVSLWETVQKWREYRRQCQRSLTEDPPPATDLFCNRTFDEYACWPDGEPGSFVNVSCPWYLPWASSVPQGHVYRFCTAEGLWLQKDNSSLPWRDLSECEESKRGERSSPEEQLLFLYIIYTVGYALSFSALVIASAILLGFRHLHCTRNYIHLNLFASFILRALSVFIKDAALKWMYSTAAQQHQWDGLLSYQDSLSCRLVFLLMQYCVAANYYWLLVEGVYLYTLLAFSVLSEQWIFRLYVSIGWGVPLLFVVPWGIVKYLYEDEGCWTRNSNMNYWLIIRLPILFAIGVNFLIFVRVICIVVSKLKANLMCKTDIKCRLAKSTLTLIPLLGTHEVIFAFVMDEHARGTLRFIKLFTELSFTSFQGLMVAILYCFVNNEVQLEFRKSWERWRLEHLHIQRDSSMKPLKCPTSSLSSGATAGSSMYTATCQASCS

[2] = molecular target: T2, hERG (KCNH2) (Homo sapiens, UniProt Q12809); assay: Inhibition of hERG at 1 uM at -80 mV holding potential by whole-cell patch clamp analysis relative to control; format: toxicity
T2 sequence (Q12809 whole entry): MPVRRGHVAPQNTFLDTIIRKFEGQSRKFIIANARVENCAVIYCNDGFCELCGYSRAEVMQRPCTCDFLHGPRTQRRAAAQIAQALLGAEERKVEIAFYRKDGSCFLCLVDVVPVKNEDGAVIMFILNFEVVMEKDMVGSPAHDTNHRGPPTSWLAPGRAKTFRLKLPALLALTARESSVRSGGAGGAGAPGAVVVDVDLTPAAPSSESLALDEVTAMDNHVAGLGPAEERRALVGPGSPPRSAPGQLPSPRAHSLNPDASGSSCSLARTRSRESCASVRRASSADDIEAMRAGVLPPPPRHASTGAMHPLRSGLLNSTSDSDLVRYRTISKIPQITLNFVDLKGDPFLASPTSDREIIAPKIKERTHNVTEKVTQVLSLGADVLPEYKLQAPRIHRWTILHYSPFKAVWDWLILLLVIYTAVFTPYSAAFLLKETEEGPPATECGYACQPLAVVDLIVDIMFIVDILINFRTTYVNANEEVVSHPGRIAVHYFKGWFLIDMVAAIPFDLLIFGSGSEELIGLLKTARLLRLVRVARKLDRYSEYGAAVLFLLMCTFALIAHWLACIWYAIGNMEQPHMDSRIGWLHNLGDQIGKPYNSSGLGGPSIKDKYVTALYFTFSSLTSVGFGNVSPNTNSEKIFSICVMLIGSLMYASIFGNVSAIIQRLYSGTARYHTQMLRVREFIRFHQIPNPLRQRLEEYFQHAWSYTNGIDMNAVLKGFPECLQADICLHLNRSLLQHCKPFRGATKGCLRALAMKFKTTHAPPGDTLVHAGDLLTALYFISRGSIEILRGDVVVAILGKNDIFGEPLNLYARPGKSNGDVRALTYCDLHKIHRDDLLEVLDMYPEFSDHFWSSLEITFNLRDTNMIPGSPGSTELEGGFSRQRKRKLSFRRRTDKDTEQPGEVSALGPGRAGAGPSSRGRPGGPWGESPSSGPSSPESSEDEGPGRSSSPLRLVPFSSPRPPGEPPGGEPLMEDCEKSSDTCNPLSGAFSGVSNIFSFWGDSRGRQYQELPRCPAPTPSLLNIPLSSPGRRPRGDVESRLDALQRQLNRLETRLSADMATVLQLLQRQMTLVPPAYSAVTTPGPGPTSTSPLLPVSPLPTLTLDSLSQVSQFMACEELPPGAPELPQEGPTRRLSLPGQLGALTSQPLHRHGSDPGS

[3] = molecular target: T2, hERG (KCNH2); assay: Inhibition of hERG at 10 uM at -80 mV holding potential by whole-cell patch clamp analysis relative to control; format: toxicity
[4] = Half life in Sprague-Dawley rat at 5 mg/kg, po measured up to 24 hrs by LC-MS/MS analysis; format: ADME, organism-based; conditions: in vivo
[5] = Cmax in Sprague-Dawley rat at 5 mg/kg, po measured up to 24 hrs by LC-MS/MS analysis; format: ADME, organism-based; conditions: in vivo
[6] = AUC (0 to infinity) in Sprague-Dawley rat at 5 mg/kg, po measured up to 24 hrs by LC-MS/MS analysis; format: ADME, organism-based; conditions: in vivo
[7] = Observed apparent oral clearance in Sprague-Dawley rat at 5 mg/kg, po measured up to 24 hrs by LC-MS/MS analysis; format: ADME, organism-based; conditions: in vivo
[8] = Fraction of the dose absorbed in Sprague-Dawley rat at 5 mg/kg, po measured up to 24 hrs by LC-MS/MS analysis; format: ADME, organism-based; conditions: in vivo, read-out: Fabs
[9] = in vivo; conditions: Sprague-Dawley, rat, po, 5 mg/kg
[10] = molecular target: T1, Glucagon-like peptide 1 receptor; assay: Binding affinity to GLP-1R (unknown origin) at 500 nM measured at 30 to 120 mins by HTRF analysis relative to control; conditions: time 30-120 min
[11] = molecular target: T1, Glucagon-like peptide 1 receptor; assay: Binding affinity to GLP-1R (unknown origin) at 5000 nM measured at 30 to 120 mins by HTRF analysis relative to control; conditions: filed as agonist, time 30-120 min
[12] = molecular target: T1, Glucagon-like peptide 1 receptor; assay: Agonist activity at human GLP-1R expressed in HEK293 cells assessed as beta-arrestin2 recruitment incubated for 5 mins by bioluminescence based Envision multiplate reader analysis; format: functional, cell-based
[13] = molecular target: T1, Glucagon-like peptide 1 receptor; assay: Agonist activity at human GLP-1R expressed in HEK293 cells assessed as beta-arrestin1 recruitment incubated for 5 mins by bioluminescence based Envision multiplate reader analysis; format: functional, cell-based
[14] = molecular target: T3, Glucagon-like peptide 2 receptor (Homo sapiens, UniProt O95838); assay: Agonist activity at N-terminal HA-tagged human GLP-2R expressed in CHO cells co-transfected with pcDNA3.0 assessed as effect on cAMP accumulation incubated for 30 mins by microplate reader analysis; format: functional, cell-based
T3 sequence (O95838 whole entry): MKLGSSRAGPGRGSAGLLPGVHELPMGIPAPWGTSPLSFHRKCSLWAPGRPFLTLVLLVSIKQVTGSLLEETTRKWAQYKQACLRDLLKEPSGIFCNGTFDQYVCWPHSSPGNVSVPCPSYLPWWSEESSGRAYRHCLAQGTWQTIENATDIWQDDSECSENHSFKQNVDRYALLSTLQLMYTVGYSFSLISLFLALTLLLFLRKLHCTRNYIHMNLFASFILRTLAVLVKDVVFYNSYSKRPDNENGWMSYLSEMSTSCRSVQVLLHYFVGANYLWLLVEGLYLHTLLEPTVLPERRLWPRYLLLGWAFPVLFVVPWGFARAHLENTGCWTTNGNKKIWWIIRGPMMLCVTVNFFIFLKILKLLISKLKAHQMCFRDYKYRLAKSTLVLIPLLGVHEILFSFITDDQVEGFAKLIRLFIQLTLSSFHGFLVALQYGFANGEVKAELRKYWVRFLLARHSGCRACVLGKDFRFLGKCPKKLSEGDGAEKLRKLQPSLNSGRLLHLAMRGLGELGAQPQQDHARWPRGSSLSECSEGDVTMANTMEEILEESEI

[15] = molecular target: T4, Gastric inhibitory polypeptide receptor (Homo sapiens, UniProt P48546); assay: Agonist activity at N-terminal HA-tagged human GIPR expressed in CHO cells co-transfected with pcDNA3.0 assessed as effect on cAMP accumulation incubated for 30 mins by microplate reader analysis; format: functional, cell-based
T4 sequence (P48546 whole entry): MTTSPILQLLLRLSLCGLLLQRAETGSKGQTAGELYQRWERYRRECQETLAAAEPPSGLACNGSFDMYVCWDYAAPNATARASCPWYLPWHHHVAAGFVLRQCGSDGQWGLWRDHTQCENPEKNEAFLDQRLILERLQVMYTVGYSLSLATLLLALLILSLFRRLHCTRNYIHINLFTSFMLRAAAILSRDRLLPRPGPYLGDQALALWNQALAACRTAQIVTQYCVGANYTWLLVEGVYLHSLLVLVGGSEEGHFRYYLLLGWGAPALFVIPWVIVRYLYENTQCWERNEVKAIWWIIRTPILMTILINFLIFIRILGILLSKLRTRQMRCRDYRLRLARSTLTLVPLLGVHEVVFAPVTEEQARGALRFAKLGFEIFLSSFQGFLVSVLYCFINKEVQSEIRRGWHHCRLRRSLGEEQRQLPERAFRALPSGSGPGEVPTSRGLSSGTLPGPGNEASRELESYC

[16] = molecular target: Glucagon receptor (Homo sapiens, UniProt P47871); assay: Agonist activity at N-terminal HA-tagged human GCGR expressed in CHO cells co-transfected with pcDNA3.0 assessed as effect on cAMP accumulation incubated for 30 mins by microplate reader analysis; format: functional, cell-based
Sequence of Glucagon receptor (P47871 whole entry): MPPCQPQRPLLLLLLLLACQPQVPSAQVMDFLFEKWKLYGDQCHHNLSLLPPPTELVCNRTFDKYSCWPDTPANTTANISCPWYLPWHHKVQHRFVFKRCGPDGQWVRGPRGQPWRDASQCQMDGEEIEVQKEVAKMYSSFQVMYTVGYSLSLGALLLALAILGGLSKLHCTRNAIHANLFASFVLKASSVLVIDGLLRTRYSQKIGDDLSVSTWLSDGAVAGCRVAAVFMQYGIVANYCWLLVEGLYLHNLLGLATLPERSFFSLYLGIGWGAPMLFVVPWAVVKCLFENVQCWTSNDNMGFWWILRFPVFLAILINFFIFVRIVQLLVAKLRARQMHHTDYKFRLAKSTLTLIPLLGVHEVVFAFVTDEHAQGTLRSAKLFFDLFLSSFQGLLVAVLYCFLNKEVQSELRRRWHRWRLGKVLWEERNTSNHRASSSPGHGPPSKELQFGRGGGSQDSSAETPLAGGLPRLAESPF

[17] = Induction of insulin release in human EndoC-betaH5 cells incubated for 1 hr by ELISA analysis; format: functional, cell-based; conditions: EndoC-betaH5, 1 h
[18] = test system: Rattus norvegicus; assay: Antidiabetic activity in human GLP-1R knockin Sprague-Dawley rat model assessed as increase in rate of glucose disappearance at 1 to 10 mg/kg, po pretreated with compound for 15 mins by IPGTT analysis; format: functional, organism-based; conditions: dose 1-10 mg/kg
[19] = test system: Rattus norvegicus; assay: Antidiabetic activity in human GLP-1R knockin Sprague-Dawley rat model assessed as increase in rate of insulin secretion at 1 to 10 mg/kg, po pretreated with compound for 15 mins by IPGTT analysis; format: functional, organism-based; conditions: dose 1-10 mg/kg
[20] = test system: Rattus norvegicus; assay: Antidiabetic activity in human GLP-1R knockin po dosed Sprague-Dawley rat model assessed as increase in glucose-simulated insulin secretion pretreated with compound for 15 mins followed by D-glucose administration and measured after 30 mins by ELISA analysis; format: functional, organism-based; conditions: dose 1-10 mg/kg, time 45.0 min
[21] = test system: Rattus norvegicus; assay: Antidiabetic activity in human GLP-1R knockin Sprague-Dawley rat model assessed as increase in rate of glucose disappearance at 10 mg/kg, po pretreated with compound for 15 mins by IPGTT analysis; format: functional, organism-based
[22] = test system: Rattus norvegicus; assay: Antidiabetic activity in human GLP-1R knockin Sprague-Dawley rat model assessed as increase in rate of insulin secretion at 10 mg/kg, po pretreated with compound for 15 mins by IPGTT analysis; format: functional, organism-based

Compound	pEC50 [1]	inhibition at 1 µM [2] [%]	inhibition at 10 µM [3] [%]	half-life [4] [h]	Cmax [5] [ng/mL]	AUC(0-inf) [6] [ng·h/mL]	CL/F [7] [mL/min/kg]	Fa at 24 h [8] [%]	Tmax at 24 h [9] [h]	Activity [11] [%]	Activity ([10]; filed as agonist) [%]	other results
O=C(O)c1ccc2nc(Cc3ccc(-c4cccc(OCc5ccc(C6CC(F)(F)C6)cc5F)n4)cc3F)n(C[C@@H]3CCO3)c2c1	10.51	0.58	4.76	2.19	33.6	91	963	2.86	1.33			
O=C(O)c1ccc2nc(CN3CCC(Oc4cccc(Cc5ccc(Cl)c6c5OCC6)n4)CC3)n(C[C@@H]3CCO3)c2n1	10.33	0.7	5.1	10.5	24.1	182	458	28.5	0.67			
O=C(O)c1ccc2nc(CN3CC=C(c4cccc(OCc5ccc(C6CC(F)(F)C6)cc5F)n4)CC3)n(C[C@@H]3CCO3)c2n1	10.32	0.6	37.6	3.32	256	1380	65.8	54.2	2.67	71.2		Activity [10]: 35.5%; pEC50 [12]: 6.06; pEC50 [13]: 5.69; pEC50 [14]: < 4.70; pEC50 [15]: < 4.70; pEC50 [16]: < 4.70; pEC50 [17]: 7.64; Activity [18]: Active; Activity [19]: Active; Activity [20]: Dose-dependent-effect
O=C(O)c1ccc2nc(CN3CCC(Oc4cccc(COc5ccc6cnn(CC(F)F)c6c5F)n4)CC3)n(C[C@@H]3CCO3)c2n1	10.07	5.1	14.2	2.95	38.3	31.4	2210	2.2	0.19			
O=C(O)c1cc(F)c2nc(CN3CC=C(c4cccc(OCc5ccc(C6CC(F)(F)C6)cc5F)n4)CC3)n(C[C@@H]3CCO3)c2c1	10.80		58.7							82.2	45.4	
O=C(O)c1ccc2nc(Cc3ccc(-c4cccc(OCc5ccc(C6CC(F)(F)C6)cc5F)n4)cc3)n(C[C@@H]3CCO3)c2c1	10.03									73.5		Activity [10]: 29.5%
O=C(O)c1ccc2nc(CN3CCN(c4cccc(OCc5ccc(C6CC(F)(F)C6)cc5F)n4)CC3)n(C[C@@H]3CCO3)c2c1	10.09									66.6		Activity [10]: 19.9%
O=C(O)c1ccc2nc(CN3CC=C(c4cccc(OCc5ccc(C6CC(F)(F)C6)cc5F)n4)CC3)n(C[C@@H]3CCO3)c2c1	10.23	4.53	74	6.68	22	67	1230	3.63	0.42	88.9	57.9	
N#Cc1ccc(COc2cccc(C3CCN(Cc4nc5ccc(C(=O)O)cc5n4C[C@@H]4CCO4)CC3)n2)c(F)c1 [DANUGLIPRON]		8.4	69.7	3.61	130	655	135	35.1	1.33	81.9	44.9	Activity [21]: Active; Activity [22]: Active
COc1cc(C(=O)O)cc2c1nc(CN1CC=C(c3cccc(OCc4ccc(C5CC(F)(F)C5)cc4F)n3)CC1)n2C[C@@H]1CCO1	10.92		68.3	2.41	31.5	84	1040	2.43	0.92	92.3	69.4	
O=C(O)c1ccc2nc(CN3CCC(Oc4cccc(COc5ccc6cnn(CC(F)F)c6c5)n4)CC3)n(C[C@@H]3CCO3)c2n1	10.07	-0.55	2.69	4.27	133	149	601	10.8	0.36			
